These are literature values, as cited in patent US20070031352A1, “Powdery preparations containing diethylamino-hydroxybenzoyl-hexyl-benzoate” (BASF Aktiengesellschaft, priority 2003, published 2007).

The conditions of this data set: at 354 nm.

As to `CCCCCCOC(=O)c1ccccc1C(=O)c1ccc(N(CC)CC)cc1O` [Uvinul® A Plus, diethylamino hydroxybenzoyl hexyl benzoate], the absorbance coefficient is recorded as 940.
